The test system of this experiment is BDF1 mice, P388 leukemia ip, median survival T/C. Nature of the experiment: NCI In Vivo Anticancer Drug Screen. Data for tumor model P388 Leukemia (intraperitoneal) in B6D2F1 (BDF1) mice. The note with it: endpoint: median survival time, higher = longer survival. In outline:
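In tumour-bearing mice, survival after compound treatment is set against the vehicle group and given as a quotient.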

[1] abbreviates: dose: 100.0 mg/kg/injection, schedule: Q01DX009 (ip), vehicle: Klucel (hydroxypropylcellulose) (HPC).
Where [2] appears, read: dose: 100.0 mg/kg/injection, schedule: Q04DX003 (ip), vehicle: Klucel (hydroxypropylcellulose) (HPC).
Where [3] appears, read: dose: 200.0 mg/kg/injection, schedule: Q01DX009 (ip), vehicle: Klucel (hydroxypropylcellulose) (HPC).
[4] abbreviates: dose: 200.0 mg/kg/injection, schedule: Q04DX003 (ip), vehicle: Klucel (hydroxypropylcellulose) (HPC).
Where [5] appears, read: dose: 400.0 mg/kg/injection, schedule: Q04DX003 (ip), vehicle: Klucel (hydroxypropylcellulose) (HPC).
Where [6] appears, read: dose: 6.25 mg/kg/injection, schedule: Q01DX009 (ip), vehicle: saline.
[7] abbreviates: dose: 12.5 mg/kg/injection, schedule: Q01DX009 (ip), vehicle: saline.
[8] abbreviates: dose: 25.0 mg/kg/injection, schedule: Q01DX009 (ip), vehicle: saline.
Setting [9] is: dose: 50.0 mg/kg/injection, schedule: Q01DX009 (ip), vehicle: saline.
The mark [10] stands for this setting: dose: 100.0 mg/kg/injection, schedule: Q01DX009 (ip), vehicle: saline.
The mark [11] stands for this setting: dose: 100.0 mg/kg/injection, schedule: Q04DX003 (ip), vehicle: saline.
Setting [12] is: dose: 50.0 mg/kg/injection, schedule: Q01DX009 (ip), vehicle: saline with Tween-80.
The mark [13] stands for this setting: dose: 100.0 mg/kg/injection, schedule: Q01DX009 (ip), vehicle: saline with Tween-80.
[14] abbreviates: dose: 12.5 mg/kg/injection, schedule: Q01DX009 (ip), vehicle: Klucel (hydroxypropylcellulose) (HPC).
[15] abbreviates: dose: 25.0 mg/kg/injection, schedule: Q01DX009 (ip), vehicle: Klucel (hydroxypropylcellulose) (HPC).
The mark [16] stands for this setting: dose: 50.0 mg/kg/injection, schedule: Q01DX009 (ip), vehicle: Klucel (hydroxypropylcellulose) (HPC).
The mark [17] stands for this setting: dose: 200.0 mg/kg/injection, schedule: Q01DX009 (ip), vehicle: saline with Tween-80.

Several values for one entry are separate records, joined by “and”; a condition that tells them apart may be missing. Equal values may be shown once. Inconclusive results and toxic doses are left out.

T/C data for 19 compounds are collected here from PubChem BioAssay AID328 (DTP/NCI, 2004).

On to `CCCSc1ncnc2nc(C)[nH]c12`, for which the T/C is, setting by setting: (dose: 0.39 mg/kg/injection, schedule: Q01DX009 (ip), vehicle: saline with Tween-80) 100 % of control; (dose: 0.78 mg/kg/injection, schedule: Q01DX009 (ip), vehicle: saline with Tween-80) 109 % of control; (dose: 1.56 mg/kg/injection, schedule: Q01DX009 (ip), vehicle: saline with Tween-80) 100 % of control and 122 % of control; (dose: 3.13 mg/kg/injection, schedule: Q01DX009 (ip), vehicle: saline with Tween-80) 95 % of control and 100 % of control; (dose: 6.25 mg/kg/injection, schedule: Q01DX009 (ip), vehicle: saline with Tween-80) 103 % of control; (dose: 12.5 mg/kg/injection, schedule: Q01DX009 (ip), vehicle: saline with Tween-80) 103 % of control.

As for `CCN(CC)CCCNC(C)CCCN(CC)CC` (stereo not drawn), the T/C is 103 % of control (dose: 50.0 mg/kg/injection, schedule: Q01DX009 (ip), vehicle: water); 98 % of control (dose: 100.0 mg/kg/injection, schedule: Q01DX009 (ip), vehicle: water); 102 % of control (dose: 100.0 mg/kg/injection, schedule: Q04DX003 (ip), vehicle: water); 100 % of control (dose: 200.0 mg/kg/injection, schedule: Q04DX003 (ip), vehicle: water).

`NC(=O)Nc1nc(-c2ccccc2)no1`: the T/C runs as follows: under setting [1], 95 % of control; under setting [2], 100 % of control; under setting [3], 100 % of control; under setting [4], 109 % of control; (dose: 400.0 mg/kg/injection, schedule: Q01DX009 (ip), vehicle: Klucel (hydroxypropylcellulose) (HPC)) 90 % of control; under setting [5], 100 % of control.

Take `CCOC(=O)c1c(N)ssc1=S`: the T/C was 101 % of control under setting [6]; 113 % of control under setting [7]; 100 % of control under setting [8]; 111 % of control under setting [9]; 113 % of control under setting [10]; 112 % of control under setting [11]. The T/C is, setting by setting: (dose: 200.0 mg/kg/injection, schedule: Q01DX009 (ip), vehicle: saline) 93 % of control and 104 % of control; (dose: 200.0 mg/kg/injection, schedule: Q04DX003 (ip), vehicle: saline) 86 % of control; (dose: 300.0 mg/kg/injection, schedule: Q01DX009 (ip), vehicle: saline) 91 % of control.

As to `Clc1ncn[nH]1`, the T/C is 120 % of control (dose: 100.0 mg/kg/injection, schedule: Q01DX001 (ip), vehicle: saline sonified); 112 % of control (dose: 200.0 mg/kg/injection, schedule: Q01DX001 (ip), vehicle: saline sonified); 120 % of control (dose: 400.0 mg/kg/injection, schedule: Q01DX001 (ip), vehicle: saline sonified).

For `CCSc1ncnc2c1ncn2CN1CCOCC1`, the T/C reads like this: (dose: 25.0 mg/kg/injection, schedule: Q01DX009 (ip), vehicle: saline with Tween-80) 86 % of control; under setting [12], 95 % of control; under setting [13], 168 % of control; (dose: 150.0 mg/kg/injection, schedule: Q01DX009 (ip), vehicle: saline) 100 % of control; (dose: 330.0 mg/kg/injection, schedule: Q01DX009 (ip), vehicle: saline) 110 % of control.

For `NC(=O)C(c1ccccc1)N1CCCCC1` (stereo not drawn), the T/C is, setting by setting: (dose: 6.25 mg/kg/injection, schedule: Q01DX009 (ip), vehicle: Klucel (hydroxypropylcellulose) (HPC)) 109 % of control; under setting [14], 95 % of control; under setting [15], 95 % of control; (dose: 25.0 mg/kg/injection, schedule: Q04DX003 (ip), vehicle: Klucel (hydroxypropylcellulose) (HPC)) 104 % of control; under setting [16], 91 % of control; (dose: 50.0 mg/kg/injection, schedule: Q04DX003 (ip), vehicle: Klucel (hydroxypropylcellulose) (HPC)) 104 % of control. Further, under setting [2], the T/C is 108 % of control.

With `C[C@]12C=CC(=O)C=C1[C@@H](F)C[C@@H]1[C@@H]2[C@@H](O)C[C@@]2(C)[C@H]1CC[C@]2(O)C(=O)CO`, the T/C runs as follows: under setting [15], 104 % of control; under setting [16], 96 % of control; under setting [1], 91 % of control and 108 % of control; under setting [2], 100 % of control; under setting [4], 104 % of control; under setting [5], 95 % of control.

In the case of `CCCNC(=O)Nc1cccc(C(F)(F)F)c1`, the T/C (dose: 100.0 mg/kg/injection, schedule: Q04DX003 (ip), vehicle: saline with Tween-80) was 104 % of control; the T/C (dose: 200.0 mg/kg/injection, schedule: Q04DX003 (ip), vehicle: saline with Tween-80) is 109 % of control; the T/C (dose: 400.0 mg/kg/injection, schedule: Q04DX003 (ip), vehicle: saline with Tween-80) is 100 % of control.

Turning to `CC(=O)n1cc(CCC(=O)O)c2ccccc21`, the T/C by setting is: (dose: 100.0 mg/kg/injection, schedule: Q04DX002 (ip), vehicle: saline with Tween-80) 106 % of control; (dose: 200.0 mg/kg/injection, schedule: Q04DX002 (ip), vehicle: saline with Tween-80) 101 % of control; (dose: 400.0 mg/kg/injection, schedule: Q04DX002 (ip), vehicle: saline with Tween-80) 102 % of control.

For `CN(C)c1ccc(/C=C/c2ccnc3ccccc23)c(Cl)c1`, the T/C is, setting by setting: under setting [12], 102 % of control; under setting [13], 96 % of control; under setting [17], 88 % of control.

Consider `CCOCCOC(=O)Nc1ccc(C)c(NC(=O)OCCOCC)c1`, for which the T/C by setting is: under setting [12], 93 % of control; under setting [13], 90 % of control; under setting [17], 100 % of control.

For `CCCSC(CC=O)CCC` (stereo not drawn), the T/C is, setting by setting: (dose: 100.0 mg/kg/injection, schedule: Q01DX001 (ip), vehicle: suspension in saline) 106 % of control; (dose: 200.0 mg/kg/injection, schedule: Q01DX001 (ip), vehicle: suspension in saline) 92 % of control; (dose: 400.0 mg/kg/injection, schedule: Q01DX001 (ip), vehicle: suspension in saline) 88 % of control.

As for `CN(C)c1ccc2c(Cl)cc(Cl)nc2c1`, the T/C under setting [14] was 109 % of control; the T/C under setting [15] is 109 % of control; the T/C under setting [16] was 111 % of control; the T/C under setting [1] is 117 % of control; the T/C under setting [3] is 107 % of control.

With `c1ccc(CNCCOB(OCCNCc2ccccc2)OCCNCc2ccccc2)cc1`, the T/C was 100 % of control under setting [2], 104 % of control under setting [4] and 100 % of control under setting [5].

Regarding `CN=C1N[N+]2=C(C)CCCC2S1` (stereo not drawn), the T/C reads like this: under setting [8], 97 % of control; under setting [9], 91 % of control; under setting [10], 99 % of control.

For `COc1ccc2[nH]c3cc(Cl)ccc3c(=O)c2c1`, the T/C was 100 % of control under setting [13]; 100 % of control under setting [17]; 90 % of control (dose: 400.0 mg/kg/injection, schedule: Q01DX009 (ip), vehicle: saline with Tween-80).

As to `O=C(O)C1CCSS1` (stereo not drawn), the T/C runs as follows: (dose: 0.19 mg/kg/injection, schedule: Q01DX009 (ip), vehicle: saline) 100 % of control; (dose: 0.39 mg/kg/injection, schedule: Q01DX009 (ip), vehicle: saline) 91 % of control; (dose: 0.78 mg/kg/injection, schedule: Q01DX009 (ip), vehicle: saline) 90 % of control and 117 % of control; (dose: 1.56 mg/kg/injection, schedule: Q01DX009 (ip), vehicle: saline) 96 % of control and 99 % of control; (dose: 3.12 mg/kg/injection, schedule: Q01DX009 (ip), vehicle: saline) 94 % of control; under setting [6], 94 % of control. Besides, the T/C reads like this: under setting [7], 102 % of control and 106 % of control and 108 % of control; under setting [9], 87 % of control and 89 % of control; (dose: 50.0 mg/kg/injection, schedule: Q04DX003 (ip), vehicle: saline) 103 % of control; under setting [11], 101 % of control.

Regarding `CC(=O)C(C(C)=O)c1cc(NS(=O)(=O)c2ccccc2)ccc1O`, the T/C (dose: 100.0 mg/kg/injection, schedule: Q01DX001 (ip), vehicle: saline with Tween-80) is 104 % of control; the T/C (dose: 200.0 mg/kg/injection, schedule: Q01DX001 (ip), vehicle: saline with Tween-80) was 100 % of control; the T/C (dose: 400.0 mg/kg/injection, schedule: Q01DX001 (ip), vehicle: saline with Tween-80) is 95 % of control.
